Patent US7019156B2, “Tumor inhibiting gallium compounds” (Faustus Forschungs Cie. Translational Cancer Research GmbH, priority 2001, dated 2006)

Experiments:
Assay type in all cases: cell-based
[1] = tested on: ovarian (OVCAR3) cell line; assay: Tumor-inhibiting activity on cell line; conditions: compared with IC50 <0.003 mg/ml tumor types
melanoma xenograft = assay: Tumor-inhibiting activity on xenograft; conditions: compared with IC50 <0.003 mg/ml tumor types
[2] = tested on: renal-cell carcinoma xenografts; assay: Tumor-inhibiting activity on xenografts; conditions: one of two renal-cell carcinoma xenografts
mammary carcinomas = assay: Tumor-inhibiting activity, selectivity for tumor types
[3] = tested on: stomach carcinoma xenograft; assay: Tumor-inhibiting activity on xenograft; conditions: compared with IC50 <0.003 mg/ml tumor types
[4] = tested on: parvicellular bronchial carcinoma cell line (DMS 114); assay: Tumor-inhibiting activity on cell line; conditions: compared with IC50 <0.003 mg/ml tumor types
[5] = tested on: macrocellular bronchial carcinomas; assay: Tumor-inhibiting activity, selectivity for tumor types
prostrate carcinomas = assay: as above

- IC50 (mammary carcinomas): < 3 µg/mL
- IC50 [5]: < 3 µg/mL
- IC50 (prostrate carcinomas): < 3 µg/mL
Substance: bis(2-acetylpyridine-4,4-dimethyl thiosemicarbazonato-N1, N2,S)gallium(III) tetrachlorogallate(III)
- tumor-inhibiting effect [1]: Comparable effects
- tumor-inhibiting effect (melanoma xenograft): Comparable effects
- tumor-inhibiting activity [2]: above-average activity
- tumor-inhibiting effect [3]: Comparable effects
- tumor-inhibiting effect [4]: Comparable effects
